Experimental data reported in ChEMBL document CHEMBL1944561, “Discovery and SAR exploration of a novel series of imidazo[4,5-b]pyrazin-2-ones as potent and selective mTOR kinase inhibitors” (Bioorg Med Chem Lett, 2011).

Legend:
[1] = molecular target: T1, Tyrosine-protein kinase receptor TYRO3 (Homo sapiens) (UniProt Q06418); experiment: Inhibition of Rse assessed as activity remaining at 10 uM
T1 sequence (whole entry): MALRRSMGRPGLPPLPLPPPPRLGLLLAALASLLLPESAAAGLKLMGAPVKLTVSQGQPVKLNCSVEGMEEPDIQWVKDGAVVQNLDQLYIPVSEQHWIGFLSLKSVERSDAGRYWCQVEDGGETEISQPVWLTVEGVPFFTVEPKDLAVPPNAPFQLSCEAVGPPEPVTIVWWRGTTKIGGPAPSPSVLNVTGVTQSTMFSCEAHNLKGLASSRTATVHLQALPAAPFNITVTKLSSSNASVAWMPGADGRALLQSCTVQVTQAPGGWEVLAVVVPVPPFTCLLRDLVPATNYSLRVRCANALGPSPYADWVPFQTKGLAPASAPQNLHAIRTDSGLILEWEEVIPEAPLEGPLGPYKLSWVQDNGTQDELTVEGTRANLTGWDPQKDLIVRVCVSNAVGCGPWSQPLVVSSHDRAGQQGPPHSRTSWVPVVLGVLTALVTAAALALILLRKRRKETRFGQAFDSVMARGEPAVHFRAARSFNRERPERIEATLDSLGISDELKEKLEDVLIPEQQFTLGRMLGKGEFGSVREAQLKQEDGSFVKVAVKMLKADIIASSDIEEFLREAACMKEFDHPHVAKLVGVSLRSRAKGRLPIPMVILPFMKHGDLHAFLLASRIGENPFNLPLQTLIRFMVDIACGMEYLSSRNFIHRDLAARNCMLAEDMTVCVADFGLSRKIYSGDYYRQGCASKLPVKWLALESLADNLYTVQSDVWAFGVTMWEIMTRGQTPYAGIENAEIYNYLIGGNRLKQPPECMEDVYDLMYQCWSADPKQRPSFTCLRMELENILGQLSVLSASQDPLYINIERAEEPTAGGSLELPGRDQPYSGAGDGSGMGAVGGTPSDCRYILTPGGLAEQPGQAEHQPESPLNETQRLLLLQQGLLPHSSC

[2] = molecular target: Proto-oncogene tyrosine-protein kinase receptor Ret (Homo sapiens) (UniProt P07949); experiment: Inhibition of Ret assessed as activity remaining at 10 uM
[3] = molecular target: Glycogen synthase kinase-3 alpha (Homo sapiens, UniProt P49840); experiment: Inhibition of GSK3alpha
[4] = molecular target: T2, Tyrosine-protein kinase JAK3 (Homo sapiens) (UniProt P52333); experiment: Inhibition of JAK3 assessed as activity remaining at 10 uM
T2 sequence (whole entry): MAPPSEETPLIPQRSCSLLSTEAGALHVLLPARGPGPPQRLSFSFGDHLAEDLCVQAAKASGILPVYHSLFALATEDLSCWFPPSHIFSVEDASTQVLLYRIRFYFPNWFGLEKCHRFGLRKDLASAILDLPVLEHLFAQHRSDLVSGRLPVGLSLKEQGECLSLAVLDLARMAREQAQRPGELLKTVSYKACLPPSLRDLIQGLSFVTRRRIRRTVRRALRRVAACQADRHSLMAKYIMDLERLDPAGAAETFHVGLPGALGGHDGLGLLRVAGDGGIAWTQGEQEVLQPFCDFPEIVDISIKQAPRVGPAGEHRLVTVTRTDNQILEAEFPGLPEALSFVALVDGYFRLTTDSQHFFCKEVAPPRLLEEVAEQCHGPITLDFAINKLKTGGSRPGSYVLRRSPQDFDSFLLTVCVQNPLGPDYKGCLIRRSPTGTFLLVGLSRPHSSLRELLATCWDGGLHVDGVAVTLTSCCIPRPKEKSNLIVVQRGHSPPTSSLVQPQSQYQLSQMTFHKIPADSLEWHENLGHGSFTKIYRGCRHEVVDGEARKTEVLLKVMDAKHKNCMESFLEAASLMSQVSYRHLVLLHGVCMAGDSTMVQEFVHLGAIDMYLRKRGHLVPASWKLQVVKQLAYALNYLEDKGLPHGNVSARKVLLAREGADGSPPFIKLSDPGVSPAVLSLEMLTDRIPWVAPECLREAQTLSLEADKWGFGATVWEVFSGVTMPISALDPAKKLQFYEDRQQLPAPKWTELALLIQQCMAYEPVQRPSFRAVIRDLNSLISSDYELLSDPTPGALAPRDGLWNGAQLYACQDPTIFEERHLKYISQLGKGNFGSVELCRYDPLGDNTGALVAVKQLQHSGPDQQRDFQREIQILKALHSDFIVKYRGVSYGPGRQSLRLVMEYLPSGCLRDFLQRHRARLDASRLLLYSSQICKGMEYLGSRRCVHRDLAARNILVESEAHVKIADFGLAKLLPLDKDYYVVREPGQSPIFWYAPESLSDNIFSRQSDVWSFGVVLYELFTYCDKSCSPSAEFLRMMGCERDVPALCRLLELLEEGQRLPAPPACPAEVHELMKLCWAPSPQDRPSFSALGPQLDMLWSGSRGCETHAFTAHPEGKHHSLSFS

[5] = molecular target: Tyrosine-protein kinase Lck (Homo sapiens) (UniProt P06239); experiment: Inhibition of Lck assessed as activity remaining at 10 uM
[6] = molecular target: Serine/threonine-protein kinase D2 (Homo sapiens) (UniProt Q9BZL6); experiment: Inhibition of PKD2 assessed as activity remaining at 10 uM
[7] = molecular target: Tyrosine-protein kinase ZAP-70 (Homo sapiens) (UniProt P43403); experiment: Inhibition of ZAP70 assessed as activity remaining at 10 uM
[8] = molecular target: Serine/threonine-protein kinase mTOR (Homo sapiens, UniProt P42345); experiment: Inhibition of mTOR assessed as activity remaining at 10 uM
[9] = molecular target: Tyrosine-protein kinase Lyn (Homo sapiens) (UniProt P07948); experiment: Inhibition of LYN-A assessed as activity remaining at 10 uM
[10] = molecular target: Macrophage-stimulating protein receptor (Homo sapiens) (UniProt Q04912); experiment: Inhibition of Ron assessed as activity remaining at 10 uM
[11] = molecular target: MAP kinase-activated protein kinase 3 (Homo sapiens) (UniProt Q16644); experiment: Inhibition of MAPKAP-K3 assessed as activity remaining at 10 uM
[12] = molecular target: Tyrosine-protein kinase JAK2 (Homo sapiens) (UniProt O60674); experiment: Inhibition of JAK2 assessed as activity remaining at 10 uM
[13] = molecular target: Serine/threonine-protein kinase PLK1 (Homo sapiens) (UniProt P53350); experiment: Inhibition of Plk1 assessed as activity remaining at 10 uM
[14] = Metabolic stability in rat hepatocytes assessed as compound remaining after 60 mins; assay type: ADME, cell-based, Hepatocyte; conditions: read-out: Stability

Proto-oncogene tyrosine-protein kinase receptor Ret (Homo sapiens), sequence (P07949 whole entry): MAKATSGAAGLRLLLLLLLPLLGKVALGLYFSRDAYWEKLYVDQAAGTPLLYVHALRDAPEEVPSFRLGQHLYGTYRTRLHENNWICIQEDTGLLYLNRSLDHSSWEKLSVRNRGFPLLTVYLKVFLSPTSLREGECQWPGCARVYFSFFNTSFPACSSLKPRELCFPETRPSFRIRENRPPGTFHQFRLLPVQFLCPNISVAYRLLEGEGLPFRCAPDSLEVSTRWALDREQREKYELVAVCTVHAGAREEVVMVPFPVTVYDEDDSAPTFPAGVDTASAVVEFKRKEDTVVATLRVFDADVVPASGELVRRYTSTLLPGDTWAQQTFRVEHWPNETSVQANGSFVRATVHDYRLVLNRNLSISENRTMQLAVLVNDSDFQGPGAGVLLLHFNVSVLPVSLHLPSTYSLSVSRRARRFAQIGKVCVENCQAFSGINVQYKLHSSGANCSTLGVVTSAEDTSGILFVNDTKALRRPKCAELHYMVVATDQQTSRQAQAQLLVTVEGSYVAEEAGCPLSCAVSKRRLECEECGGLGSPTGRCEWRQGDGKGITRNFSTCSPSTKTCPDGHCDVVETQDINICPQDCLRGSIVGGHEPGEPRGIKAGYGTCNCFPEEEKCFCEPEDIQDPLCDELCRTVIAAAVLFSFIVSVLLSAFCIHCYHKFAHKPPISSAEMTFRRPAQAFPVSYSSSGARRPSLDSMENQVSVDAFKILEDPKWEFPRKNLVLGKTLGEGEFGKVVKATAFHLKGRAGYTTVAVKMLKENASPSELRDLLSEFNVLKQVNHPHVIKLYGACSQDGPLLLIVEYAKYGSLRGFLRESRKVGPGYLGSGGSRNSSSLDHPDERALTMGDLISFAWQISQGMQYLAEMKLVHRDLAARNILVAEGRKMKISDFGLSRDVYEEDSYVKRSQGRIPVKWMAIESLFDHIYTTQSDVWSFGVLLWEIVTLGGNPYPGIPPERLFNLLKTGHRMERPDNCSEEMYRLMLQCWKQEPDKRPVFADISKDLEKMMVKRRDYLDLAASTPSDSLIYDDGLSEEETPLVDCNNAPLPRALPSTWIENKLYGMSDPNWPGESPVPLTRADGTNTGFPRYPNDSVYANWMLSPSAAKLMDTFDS
Glycogen synthase kinase-3 alpha, sequence (P49840 whole entry): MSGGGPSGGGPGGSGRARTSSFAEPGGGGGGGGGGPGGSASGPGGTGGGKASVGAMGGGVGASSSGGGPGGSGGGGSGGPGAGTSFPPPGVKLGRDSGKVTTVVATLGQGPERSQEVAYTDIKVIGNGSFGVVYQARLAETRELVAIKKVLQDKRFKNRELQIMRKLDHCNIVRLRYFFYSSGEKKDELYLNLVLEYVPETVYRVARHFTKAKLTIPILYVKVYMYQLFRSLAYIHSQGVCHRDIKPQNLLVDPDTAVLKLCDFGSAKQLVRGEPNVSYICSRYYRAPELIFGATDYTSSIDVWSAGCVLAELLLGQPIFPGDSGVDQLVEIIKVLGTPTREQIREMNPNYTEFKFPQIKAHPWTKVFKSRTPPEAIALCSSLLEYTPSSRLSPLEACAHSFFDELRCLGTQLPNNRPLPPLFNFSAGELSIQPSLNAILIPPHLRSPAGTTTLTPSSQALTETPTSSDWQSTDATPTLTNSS
Macrophage-stimulating protein receptor (Homo sapiens), sequence (Q04912 25-304 limits assumed): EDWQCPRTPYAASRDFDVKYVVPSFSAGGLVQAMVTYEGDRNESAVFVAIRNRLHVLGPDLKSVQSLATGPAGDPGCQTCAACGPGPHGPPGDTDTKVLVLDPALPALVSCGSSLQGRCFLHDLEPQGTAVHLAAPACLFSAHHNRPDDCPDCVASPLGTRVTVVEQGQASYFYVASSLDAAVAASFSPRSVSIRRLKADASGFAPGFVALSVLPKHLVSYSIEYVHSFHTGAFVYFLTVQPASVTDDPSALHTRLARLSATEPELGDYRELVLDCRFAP
Macrophage-stimulating protein receptor (Homo sapiens), sequence (Q04912 310-1400 limits assumed): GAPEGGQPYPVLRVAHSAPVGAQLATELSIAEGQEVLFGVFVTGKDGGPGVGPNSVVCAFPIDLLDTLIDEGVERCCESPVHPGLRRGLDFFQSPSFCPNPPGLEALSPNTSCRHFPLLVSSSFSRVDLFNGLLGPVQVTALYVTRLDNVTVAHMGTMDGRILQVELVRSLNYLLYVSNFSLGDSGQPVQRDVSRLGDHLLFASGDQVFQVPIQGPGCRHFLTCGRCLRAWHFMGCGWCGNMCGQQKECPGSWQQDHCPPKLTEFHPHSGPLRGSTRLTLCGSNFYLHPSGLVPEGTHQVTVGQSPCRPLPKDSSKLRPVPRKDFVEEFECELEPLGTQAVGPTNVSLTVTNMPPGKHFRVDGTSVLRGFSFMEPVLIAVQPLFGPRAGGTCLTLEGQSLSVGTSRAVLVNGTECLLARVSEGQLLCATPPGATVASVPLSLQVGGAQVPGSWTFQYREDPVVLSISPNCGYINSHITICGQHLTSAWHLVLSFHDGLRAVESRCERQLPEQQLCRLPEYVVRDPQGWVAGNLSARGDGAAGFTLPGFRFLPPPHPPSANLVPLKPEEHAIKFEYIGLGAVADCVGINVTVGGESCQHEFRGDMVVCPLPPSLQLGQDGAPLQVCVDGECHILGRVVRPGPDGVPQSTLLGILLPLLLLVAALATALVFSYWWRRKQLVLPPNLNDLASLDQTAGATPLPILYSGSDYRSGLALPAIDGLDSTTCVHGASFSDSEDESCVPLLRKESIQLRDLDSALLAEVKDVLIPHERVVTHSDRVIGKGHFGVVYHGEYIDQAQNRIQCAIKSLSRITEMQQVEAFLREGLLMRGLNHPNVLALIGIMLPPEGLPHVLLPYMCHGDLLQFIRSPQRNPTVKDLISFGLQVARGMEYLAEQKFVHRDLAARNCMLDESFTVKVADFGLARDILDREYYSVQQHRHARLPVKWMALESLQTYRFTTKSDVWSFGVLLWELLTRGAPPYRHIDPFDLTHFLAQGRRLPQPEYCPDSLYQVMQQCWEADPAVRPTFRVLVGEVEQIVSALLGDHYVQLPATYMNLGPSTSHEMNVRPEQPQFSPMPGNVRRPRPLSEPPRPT
Tyrosine-protein kinase ZAP-70 (Homo sapiens), sequence (P43403 whole entry): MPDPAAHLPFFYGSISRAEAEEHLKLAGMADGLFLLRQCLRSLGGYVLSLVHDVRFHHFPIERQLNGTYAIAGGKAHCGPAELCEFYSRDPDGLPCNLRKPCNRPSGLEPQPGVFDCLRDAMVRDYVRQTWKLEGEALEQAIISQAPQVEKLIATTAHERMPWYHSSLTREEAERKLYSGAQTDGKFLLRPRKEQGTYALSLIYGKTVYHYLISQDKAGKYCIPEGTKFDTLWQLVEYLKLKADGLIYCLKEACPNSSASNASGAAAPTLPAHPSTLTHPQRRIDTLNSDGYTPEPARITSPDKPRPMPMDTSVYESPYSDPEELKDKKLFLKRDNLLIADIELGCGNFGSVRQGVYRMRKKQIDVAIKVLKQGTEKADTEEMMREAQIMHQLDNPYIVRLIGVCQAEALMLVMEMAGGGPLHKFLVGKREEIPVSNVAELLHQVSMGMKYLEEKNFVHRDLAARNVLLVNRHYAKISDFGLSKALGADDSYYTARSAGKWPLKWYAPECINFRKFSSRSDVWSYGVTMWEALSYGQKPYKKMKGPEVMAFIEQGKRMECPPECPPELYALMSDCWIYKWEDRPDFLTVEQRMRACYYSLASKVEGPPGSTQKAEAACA
Serine/threonine-protein kinase PLK1 (Homo sapiens), sequence (P53350 whole entry): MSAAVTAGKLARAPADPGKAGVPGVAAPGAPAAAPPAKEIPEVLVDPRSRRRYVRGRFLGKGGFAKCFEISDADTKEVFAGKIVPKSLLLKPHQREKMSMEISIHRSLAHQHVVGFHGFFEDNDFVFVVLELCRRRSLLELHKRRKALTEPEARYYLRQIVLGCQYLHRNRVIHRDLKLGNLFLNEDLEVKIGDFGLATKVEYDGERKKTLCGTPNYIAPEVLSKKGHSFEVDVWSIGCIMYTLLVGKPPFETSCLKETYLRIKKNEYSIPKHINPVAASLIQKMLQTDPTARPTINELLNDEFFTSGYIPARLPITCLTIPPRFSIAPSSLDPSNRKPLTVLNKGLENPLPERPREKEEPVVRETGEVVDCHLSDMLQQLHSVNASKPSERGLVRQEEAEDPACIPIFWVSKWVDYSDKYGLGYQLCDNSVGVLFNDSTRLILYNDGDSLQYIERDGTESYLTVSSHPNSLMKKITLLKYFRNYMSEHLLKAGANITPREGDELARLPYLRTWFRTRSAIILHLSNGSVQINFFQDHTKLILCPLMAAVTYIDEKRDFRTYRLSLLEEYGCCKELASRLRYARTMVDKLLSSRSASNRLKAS
Tyrosine-protein kinase Lyn (Homo sapiens), sequence (P07948 2-512 limits assumed): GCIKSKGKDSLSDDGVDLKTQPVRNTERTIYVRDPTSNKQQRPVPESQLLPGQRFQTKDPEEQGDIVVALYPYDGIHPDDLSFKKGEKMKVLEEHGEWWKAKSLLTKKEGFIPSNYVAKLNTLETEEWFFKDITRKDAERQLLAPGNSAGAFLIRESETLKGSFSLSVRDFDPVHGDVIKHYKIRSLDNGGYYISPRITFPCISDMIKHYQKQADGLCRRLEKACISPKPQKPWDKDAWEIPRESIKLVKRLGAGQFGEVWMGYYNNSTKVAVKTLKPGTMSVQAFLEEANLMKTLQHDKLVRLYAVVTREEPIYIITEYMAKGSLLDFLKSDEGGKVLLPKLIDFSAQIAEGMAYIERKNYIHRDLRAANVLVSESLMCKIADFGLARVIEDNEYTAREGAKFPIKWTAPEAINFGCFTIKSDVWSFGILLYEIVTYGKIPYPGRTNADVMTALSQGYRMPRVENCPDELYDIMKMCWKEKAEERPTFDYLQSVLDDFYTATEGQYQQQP

Row | Activity [1] | Activity [2] | IC50 [3] | Activity [4] | Activity [5] | Activity [6] | Activity [7] | Activity [8] | Activity [9] | Activity [10] | Activity [11] | Activity [12] | Activity [13] | remaining at 1 h [14] | SMILES
1 | 88% | 80% | 990 nM | 95% | – | – | – | – | – | – | – | – | – | – | O=c1[nH]c2ncc(-c3ccc4[nH]cnc4c3)nc2n1CC1CCCCC1
2 | 86% | 84% | – | 96% | 86% | 94% | 99% | 0% | 96% | 95% | 94% | 98% | 95% | – | O=c1[nH]c2ncc(-c3ccc(-c4nc[nH]n4)cc3)nc2n1CC1CCOCC1
3 | 74% | 77% | 600 nM | 101% | – | – | – | – | – | – | – | – | – | 65% | CC(C)(O)c1ccc(-c2cnc3[nH]c(=O)n(CC4CCCCC4)c3n2)cc1
